In a melting point compilation (Tetko et al.; mined from patent text by program, amines drawn as free bases though some values may be those of a salt) one finds melting point data, which are given here for 86 compounds.

As usually defined, the melting point is the temperature, or range, at which the solid turns liquid.

`CC(C)(C)C(=O)C=C(c1ccc(Cl)cc1)S(=O)(=O)c1ccccc1` yielded a melting point of 135 to 136 °C.

With `CC(C)(S)CN1CCN(c2ccccn2)CC1`, the melting point lay in the range of 108 to 110 °C.

In the case of `N#Cc1ccc(-c2ccc(-c3ccc(C#N)cn3)o2)nc1`, the melting point fell in the range of 311 to 312 °C.

On to `CCOP(=O)(OCC)c1cc2cc(N)c(C(F)(F)F)cc2[nH]c1=O`, for which the melting point lay within 240 to 244 °C.

The compound `CC(C)(C)OC(=O)NC(CC(=O)Nc1n[nH]c(=S)s1)c1ccccc1` (stereo unspecified) yielded a melting point of 248 to 249 °C.

`O=C1OCCC1N[C@@H](Cc1ccccc1)C(=O)OCc1ccccc1` (stereo partly specified) yielded a melting point of 46 to 47 °C.

`CN(O)C(=O)Cc1ccccc1Nc1c(Cl)cccc1Cl` came in with a melting point of 135 to 138 °C.

Turning to `NS(=O)(=O)c1cc(C(F)(F)F)cc(C(F)(F)F)c1`, the melting point was in the range of 183 to 185 °C.

On to `CC(=O)Oc1ccccc1C(=O)N[C@@H]1CCCC[C@@H]1O[N+](=O)[O-]` (relative stereo), for which the melting point fell in the range of 143 to 145 °C.

`O=C(Nc1ccc(C(=O)O)cc1)OCc1cn(-c2cc3cc(C(=O)O)c(=O)[nH]c3cc2[N+](=O)[O-])cn1`: the melting point was over 300 °C.

In turn, `CC(C)(C)c1csc(-c2cc3cc(C=O)ccc3o2)n1` came in with a melting point of 83 to 84 °C.

With `CC(=O)NC(C)(C)c1ccc(CN2CCN(c3nccs3)CC2)cc1`, the melting point was 118 to 120 °C.

Turning to `CCCCCCOc1ccc(CC2SC(=O)NC2=O)cc1` (stereo unspecified), the melting point lay in the range of 52 to 54 °C.

`NC(=O)c1c(Cl)cc(Cl)c(C(=O)O)c1Cl` displayed a melting point of 280 °C.

With `COC(=O)C1=C(C)NC(C)=C(C(=O)OCCOc2cccc(CCNCC(O)COc3ccc(COCCOC(C)C)cc3)c2)C1c1cccc([N+](=O)[O-])c1` (stereo unspecified), the melting point is 65 to 67 °C.

As for `CCCCC(CC)COC(=O)C=CC(=O)NC(N)=O` (stereo unspecified), the melting point is 73 to 76 °C.

For `CCCCCCCCCCc1ccc2cc(SC)c(O)cc2c1`, the melting point lay in the range of 64.4 to 65.4 °C.

As to `O=c1[nH]c(=O)n(C2CC(OCc3ccc(F)cc3)C(CO)O2)cc1F` (stereo unspecified), the melting point was 130 to 131 °C.

For the compound `COc1ccc(-c2c(Cl)c(CNC(C)(C)C)nc3sc4c(c23)CCN(Cc2ccccc2)C4)cc1OC`, the melting point was in the range of 134 to 135 °C.

`O=C(NC1CN(C(=O)Nc2ccc(OC(F)(F)F)c(Cl)c2)N=C1c1ccc(Br)cc1)c1ccc(Cl)cc1` (stereo unspecified) showed a melting point of over 200 °C.

`N#CC(C(=O)CF)c1cccc(Cl)c1` (stereo unspecified) displayed a melting point of 90 to 96 °C.

`O=C(NCCO)c1cccc(-c2cccc3nc(C(O)c4cccc(C(F)(F)F)c4)cn23)c1` (stereo unspecified) had a melting point of 169 °C.

Regarding `CCNC(=O)n1nc(Oc2c(Cl)cc(C(F)(F)F)cc2Cl)cc1C(=O)OC`, the melting point fell in the range of 88 to 90 °C.

`COc1ccc(-c2cc(N(C)c3c(C)cc(C)cc3C)nc(C)n2)cc1OC` yielded a melting point of 124 to 125 °C.

On to `COC(=O)C(C)=C(C)C(=O)N(C(=O)c1ccccc1)c1cc(OC)c(Cl)cc1F`, for which the melting point lay within 142 to 145 °C.

As for `O=C(O)Cc1cc(C(=O)c2ccc(Br)cc2)sc1-c1ccccc1`, the melting point was in the range of 147 to 150 °C.

`COc1ccc(-c2nc(-c3ccc4c(c3)N(C)C(=O)CS4)cs2)cc1OC`: the melting point came to 144 °C.

The compound `O=C(Nc1ccc(CCO)c(CO)c1)OCc1ccccc1` gave a melting point of 101 to 103 °C.

`CC(C)(C)OC(=O)N1CCn2c(Br)c(-c3cccc(F)c3)c(C(=O)n3ccnc3)c2C1` displayed a melting point of 168 to 169 °C.

As to `CC1CC2(CC(C)(C)C1=O)OC(C)C(C)O2` (stereo unspecified), the melting point lay in the range of 71 to 72 °C.

`CCN(CC)C(=O)c1c(C(=O)OC)ccc(F)c1[Si](C)(C)C` showed a melting point of 46 °C.

Consider `CCCn1cc2c(C3(F)C(=O)Nc4ccc(Br)cc43)ncnc2n1` (stereo unspecified), for which the melting point was 184 to 186 °C.

For `CN(CCOc1ccc(C(N)=O)cc1)CCc1ccc(NS(C)(=O)=O)cc1`, the melting point is 147 °C.

`COc1ccc2c(c1)CCC(CNC(C)=O)C2` (stereo unspecified) registered a melting point of 96 to 97 °C.

In turn, `C[C@@H](O)c1nccc(N2CCN(c3nc4ccncc4o3)CC2)n1` showed a melting point of 181 to 183 °C.

In turn, `CCCC(=O)c1cnc2c(OC)cccc2c1Nc1ccc(OC(=O)CC)cc1C` yielded a melting point of 163 to 165 °C.

For `CSc1ccc(-c2nn(Cc3ccc(F)cc3F)c(=O)cc2-c2ccc(Cl)cc2)cc1`, the melting point fell in the range of 157 to 158 °C.

In the case of `COc1ccc2cccc(CCN3C(=O)c4ccccc4C3=O)c2c1`, the melting point was 154 °C.

The compound `C#CCOC[C@@H](NC(C)=O)C(=O)OC` registered a melting point of 58.5 to 59.5 °C.

With `CCCS(=O)(=O)NCC1Cc2ccc(C3=NNC(=O)CC3)cc2C1` (stereo unspecified), the melting point lay within 158 to 159 °C.

With `Cn1c(COc2ccc(CC3SC(=O)NC3=O)cc2)nc2ccc(Oc3ccc(NC(=O)Nc4ccccc4)cc3)cc21` (stereo unspecified), the melting point was in the range of 164 to 168 °C.

As to `CCc1ccc(Nc2nnc(Cc3ccnc(OC)c3)c3ccccc23)cc1Br`, the melting point lay within 133 to 135 °C.

For the compound `Cc1ccccc1C(=O)Nc1ccc(C(=O)N2CCS(=O)(=O)c3ccccc32)cc1`, the melting point is 219 to 220 °C.

The compound `N=C(CCCSc1nccc(NC(N)=NCC(F)(F)F)n1)NC(N)=O` came in with a melting point of 112 to 115 °C.

In turn, `COC(=O)c1cccc2c1C(Cc1ccnc(F)c1)(Cc1ccnc(F)c1)c1ccccc1-2` returned a melting point of 126 to 127 °C.

In turn, `CC(C)(C)c1cc2c(c(C(C)(C)C)c1O)CCS2` had a melting point of 82 °C.

In the case of `COC(=O)CC(C#Cc1cccc(-c2noc(C)n2)c1)c1ccc(OC)c(OC2CCCC2)c1` (racemic), the melting point is 66 to 68 °C.

Take `O=C(Nc1ccnn1-c1c(Cl)cc(C(F)(F)F)c(Cl)c1Cl)C(F)(F)F`: the melting point was 140 to 145 °C.

For `O=C(Nc1cccc(Cl)c1)O[C@H]1COC(c2ccccc2)=N[C@@H]1c1ccccc1` (racemic), the melting point worked out at 160 °C.

`Cc1nnc2sc3cc(Cl)ccc3n12` registered a melting point of 186 to 188 °C.

Turning to `CN(C)CC1(C2(O)CCCCC2)Cc2cc3c(cc21)N(S(C)(=O)=O)CC3` (stereo unspecified), the melting point was in the range of 156 to 158 °C.

On to `CCC(=O)c1ccc(NC(C)=O)cc1`, for which the melting point is 169 to 170 °C.

Take `O=C(CC1=C(n2nc(-c3c(-c4ccccc4)nn4ccccc34)ccc2=O)CCCC1)N1CCSCC1`: the melting point is 180 to 182 °C.

In the case of `CCCCOc1ccc2c(c1)C(N(C)S(C)(=O)=O)C(O)C(C)(C)O2` (stereo unspecified), the melting point was in the range of 138 to 140 °C.

In turn, `Cc1ccc(C2(C(=O)O)CC2C(=O)O)cc1` (single isomer, unassigned; (-)) gave a melting point of 145 to 148 °C.

For `CNC1=NS(=O)(=O)N=C1NCCSCc1ccccn1`, the melting point lay within 168 to 171 °C.

`ClC12CC3CC(CC(C3)C1=C1C3CC4CC(C3)CC1C4)C2`: the melting point was in the range of 142 to 143 °C.

Compound `OC(COc1ccc(Cl)cc1Cl)(COc1ccc(Cl)cc1Cl)Cn1cncn1` had a melting point of 136 °C.

For `O=C1CCCCC1C(C[N+](=O)[O-])c1ccc(OCc2ccccc2)cc1` (racemic), the melting point lay within 143 to 144 °C.

In the case of `CNC(=O)NC1CCCCC1`, the melting point lay within 135 to 136 °C.

Regarding `CCN1C[C@@H](C(=O)OC(C)(C)C)N(C(=O)OCc2ccccc2)C1=O`, the melting point stood at 97 °C.

`CC(CNc1ccc(C(=O)O)cc1)Oc1ccc(Cl)c2ccccc12` (stereo unspecified) had a melting point of 165 to 168 °C.

On to `CC(C)(O)c1nc(CO)n(Cc2ccc(-c3ccccc3-c3nnn[nH]3)cc2)c1C(=O)O`, for which the melting point lay in the range of 201 to 202 °C.

In the case of `Cn1cc(C=O)cc1C(=O)O`, the melting point was in the range of 178 to 180 °C.

The compound `CCN(CC)CCNC(=O)c1cccc2nc3cc(Br)ccc3nc12` gave a melting point of 107 to 109 °C.

Take `CCc1nc2c(N)nc3cc(OCc4nc5ccccc5s4)ccc3c2s1`: the melting point was in the range of 211 to 212 °C.

On to `Cc1ccc(C(O)(c2ccccc2)c2ccncc2)cc1` (stereo unspecified), for which the melting point was in the range of 192 to 195 °C.

Take `CC(=O)Nc1ccc(S(=O)(=O)Nc2nnc(C)s2)cc1`: the melting point lay in the range of 239 to 240 °C.

Regarding `CCOc1ccc(NCc2cc(OC)c(OC)c(OC)c2)cc1`, the melting point was in the range of 76 to 78 °C.

The compound `Cc1ccc(OC(C)C(=O)c2cc(C(C)(C)C)c(O)c(C(C)(C)C)c2)c(-n2nc3ccccc3n2)c1` (stereo unspecified) had a melting point of 161 °C.

On to `C=CCOC(=O)c1c(C)c(OC)cc(O[Si](C)(C)C(C)(C)C(C)C)c1C=O`, for which the melting point lay in the range of 81 to 82 °C.

With `CC(=O)OCCCCCn1ccc(=O)c(O)c1C`, the melting point lay within 132 to 133 °C.

The compound `CC1(C)CCC(C)(C)c2cc(C(O)C#Cc3ccc(C(=O)O)c(O)c3)ccc21` (stereo unspecified) came in with a melting point of 203 to 204 °C.

In the case of `C=C(Cc1ccccc1C)C(=O)O`, the melting point lay within 82 to 83 °C.

Consider `COc1ccc(-c2c(Cl)c(CN3C(=O)CCC3=O)nc3sc4c(c23)CC(C)(C)C(OCc2ccccc2)C4)cc1` (stereo unspecified), for which the melting point was in the range of 221 to 223 °C.

The compound `O=[N+]([O-])c1ccc(N2CCN(CC(O)(Cn3cncn3)c3ccc(Cl)cc3Cl)CC2)cc1` (stereo unspecified) had a melting point of 168 °C.

As for `Cc1cccc2c1NC(=O)C2(c1ccc(O)cc1)c1ccc(O)cc1`, the melting point lay in the range of 272 to 274 °C.

`COc1cc(NC(C)=O)cc(C(F)(F)F)c1` registered a melting point of 123 to 124 °C.

In turn, `CNc1nc(-c2cc3cccc(N(C)S(=O)(=O)c4cccs4)c3[nH]2)cs1` displayed a melting point of 162 to 163 °C.

`O=C(CCn1cnc2c(=O)[nH]cnc21)NCCO` displayed a melting point of 225 to 229 °C.

`CC(C)NC(=O)c1c(NC(=O)c2cc(C(F)(F)F)nn2-c2ncccc2Cl)ccc2ncccc12` had a melting point of 182 to 183 °C.

In the case of `O=S1N=C(NCCCN(Cc2ccsc2)c2ccccn2)C(NCc2ccncc2)=N1` (stereo unspecified), the melting point was 155 to 157 °C.

In turn, `O=C(OCc1ccccc1)C1NN=C(c2ccc(C(F)(F)F)cc2)S1` (stereo unspecified) came in with a melting point of 99 to 100 °C.

As for `CC(=O)Oc1cc(C(=O)O)cc([N+](=O)[O-])c1OC(C)=O`, the melting point fell in the range of 126 to 127 °C.

In turn, `O=C1N(Cc2ccccn2)c2cccc(-c3ccc(Oc4ccccc4)cc3)c2C12COc1cc3c(cc12)OCCO3` (stereo unspecified) had a melting point of 196 to 199 °C.

Compound `O=C(/C=C/c1ccc(Br)cc1)c1cnc2sccn12` registered a melting point of 213 to 215 °C.
